Consider 10 compounds from US20240207444A1, “LIPID NANOPARTICLES CONTAINING POLYNUCLEOTIDES ENCODING PHENYLALANINE HYDROXYLASE AND USES THEREOF” (ModernaTX, Inc., priority 2021, published 2024).

The data set can be described thus: Residual parent lipid levels in the liver of mice. The data set is classed as in vivo, CD-1 mice. The note with it: calculation assumes a 25 g mouse with a 1.5 g liver, >95% equals very slow metabolism of the lipid. The protocol: To assess potency of expression and metabolic stability of lipids of the disclosure, hepatocyte protein expression (hEPO) was measured following administration to mice of a nanoparticle of the disclosure.
Lipid nanoparticles including DSPC as a phospholipid, cholesterol as a structural lipid, Compound I as a PEG lipid, an ionizable amino lipid of Formula (II), and an mRNA encoding hEPO were intravenously administered to CD-1 mice. The concentration of hEPO in serum was tested at 6 hours after injection.
In the case of `CCCCCCCCC(CCCCCCCC)OC(=O)CCCCCCCN(CCO)CCCCCCCC(=O)OCCC1CCC(CC)CC1` (stereo not shown) [Compound 35], the “Approx. Percent Total Dose of Parent Lipid Remaining at 24 h” value is recorded as below 0.1%^. Consider `CCCCCCCCC(CCCCCCCC)OC(=O)CCCCCCCN(CCO)CCCCCCCC(=O)OCCCC(CCCCC)CCCCC` [Compound 31], for which the “Approx. Percent Total Dose of Parent Lipid Remaining at 24 h” value is below 0.1%^. Under `CCCCCC(CCCCC)OC(=O)CCCCCCCN(CCCCCCCC(=O)OCCC(CCCC)CCCC)CCCNc1c(NC)c(=O)c1=O` [Compound 61] stands 6 ± 0.3% ^; under `CCCCCCCCC(CCCCCCCC)OC(=O)CCCCCCCN(CCO)CCCCCCCC(=O)OCCC1CCC(CC)C1` (stereo not shown) [Compound 37], below 0.1%^. With `CCCCCC(CCCCC)OC(=O)CCCCCCCN(CCCCCCCC(=O)OCCC(CCC)CCC)CCCNc1c(NC)c(=O)c1=O` [Compound 65], the “Approx. Percent Total Dose of Parent Lipid Remaining at 24 h” value was 0.9 ± 0.06% ^. The same measure for `CCCCCCC(CCCCCC)OC(=O)CCCCCCCN(CCCCCCCC(=O)OCCC(CCC)CCC)CCCNc1c(NC)c(=O)c1=O` [Compound 64]: 6 ± 0.8% ^; for `CCCCC(CCCC)CCOC(=O)CCCCCCCN(CCCCCCCC(=O)OC(CCCC)CCCC)CCCNc1c(NC)c(=O)c1=O` [Compound 62]: 2 ± 0.9% ^. Under `CCCCCCC(CCCCCC)OC(=O)CCCCCCCN(CCCCCCCC(=O)OCCC(CCCC)CCCC)CCCNc1c(NC)c(=O)c1=O` [Compound 60] stands 9 ± 0.8% ^; under `CCCCCC(CCCCC)CCCOC(=O)CCCCCCCN(CCO)CCCCCCCC(=O)OCCCC(CCCCC)CCCCC` [Compound 33], below 0.1%^. The same measure for `CCCCCCCC(CCCCCCC)OC(=O)CCCCCCCN(CCCCCCCC(=O)OCCC(CCC)CCC)CCCNc1c(NC)c(=O)c1=O` [Compound 63]: 9 ± 3% ^.
